Assay results taken from patent publication US6448224B1, “Antibiotics and methods of using the same” (priority 1998, dated 2002).
“Also recorded” adds a separate entry of the source.

Experiments:
[1] = tested on: Orf W1 insertion duplication mutant of R6x; test: Phenotypes of the mutants: lysis, Orf W1 mutant; assay type: cell-based, S. pneumoniae
Procedure: (§1) Bacterial strains and growth conditions: The parental strain of S. pneumoniae used in these studies was R6x [Tiraby et al., Proc. Natl. Acad. Sci. USA., 70:3541-3545 (1973)], a derivative of the unencapsulated Rockefeller strain R36A [Avery et al., J. Ex. Med., 79:137-158 (1944)]. Pneumococci were routinely grown on tryptic soy agar (TSA, Difco) supplemented with sheep blood to a final concentration of 3% (v/v). For growth in liquid culture, the bacteria were grown in a semi-synthetic casein hydrolysate medium supplemented with yeast extract (C+Y, [Lacks et al., Biochem. Biophys. Acta., 39:508-517 (1960)]). For the selection and maintenance of pneumococci containing chromosomally integrated plasmids, bacteria were grown in the presence of 1 μg/ml erythomycin and/or 250 μg/ml kanamycin.
(§2) Construction of mutations: Insertion duplication mutagenesis was carried out using PCR to generate gene fragments for homologous recombination proximal to the amino terminus of Orf W1, HK or RR as follows:
OrfW1: 435 bp gene fragment spanning residues 473 (EcoR1 site) to 908 (BamH1 site) of SEQ ID NO:21.
(§3) Phenotypes of the mutants: The mutants were assessed for various physiological functions characteristic of pneumococci. This included lysis by penicillin, vancomycin, and the detergent deoxycholate (DOC). Other capabilities tested included ability to undergo natural DNA transformation (Transform) and expression of the LytA protein as assessed by Western blot. All mutants grew at the normal 30-40 minute doubling time and formed the classical diplococcal morphology.

[2] = tested on: RR insertion duplication mutant of R6x; test: Phenotypes of the mutants: lysis, RR mutant; assay type: cell-based, S. pneumoniae
Procedure: as §1, §2
RR: 371 bp gene fragment spanning residues 142 (EcoR1 site) to 513 (BamH1 site) of SEQ ID NO:15.
as §3

[3] = tested on: HK insertion duplication mutant of R6x; test: Phenotypes of the mutants: lysis, HK mutant; assay type: cell-based, S. pneumoniae
Procedure: as §1, §2
HK: 411 bp gene fragment spanning residues 279 (EcoR1 site) to 690 (BamH1 site) of SEQ ID NO:13.
as §3

[4] = tested on: loss of function mutants of the ABC transporter and RR/HK; test: Tolerance of loss of function mutants in ABC transporter and RR/HK to antibiotics; assay type: cell-based, S. pneumoniae; settings: all 3 mutants; growth inhibitory concentrations
Description: As described in Example 6, using insertion duplication mutagenesis, loss of function mutations were obtained in each of the 3 open reading frames of the ABC transporter and each of the two parts of the RR/HK. […] These parallel phenotypes further implicate these topographically close genes in a common pathway.
Vancomycin is the only antibiotic that maintains efficacy against many strains of highly antibiotic resistant bacteria, such as staphylococci, enterococci and pneumococci. Escape from antibiotic activity of vancomycin has been detected in rare staphylococci and enterococci but not in pneumococci as yet. […] Infect. Dis. J., 12:196-200 (1993); Marton et al., J. Infect. Dis., 163:542-8 (1991); and Bradley et al., Pediatr. Infect. Dis., 14:1037-1041(1995)]. […] If they created a phenotype which was corrected by exogenous peptide, they may participate in the biological activity of the peptide. For instance, the ABC transporter may transport the peptide and the HK may serve as an extracellular receptor for the peptide which then changes the behavior of the bacteria (i.e. killing) via a RR signal.

clinical isolate A144 [5] = test: Cell viability (CFU/ml) of clinical isolate A144 one hour after addition; assay type: cell-based, pneumococcus; settings: 10×MIC penicillin, 10×MIC vancomycin or 0.4 mM peptide
Description: (§4) Tolerance to penicillin occurs in bacteria that fail to trigger autolysins in response to the drug. […] This is a mechanism of resistance to these drugs and is a serious emerging medical problem. […] However, one pneumococcal strain that fails to lyse and dies slowly in response to both penicillin and vancomycin is the clinical isolate A144. This combination of traits makes A144 recalcitrant to therapy. FIG. 8 compares the activity of penicillin, vancomycin, and the peptide against a classical sensitive strain, R6, and the tolerant strain A144. […] In contrast, strain A144 loses only 0.5 logs of viability in the same time period for all three therapies. […] Thereafter the bacteria grew more slowly than untreated controls.

[6] = tested on: clinical isolate F79 (mutations in HK and ABC transporter genes); test: Lysis of clinical isolate F79 cells; assay type: cell-based, pneumococcus; settings: 10×MIC penicillin and/or 0.5 mM peptide
Procedure: (§5) FIGS. 11A-11B show the effects of 10×MIC of penicillin and/or 0.5 mM of the peptide having the amino acid sequence of SEQ ID NO:2 on the lysis of clinical isolate F79 cells (FIG. 11A) and HK mutant VanS cells (FIG. 11B).
(§6) F79 is a natural isolate of pneumococcus with mutations in the HK and the ABC transporter genes as determined by SSCP (see Example 11). This strain is tolerant to penicillin and vancomycin.

pneumococcal strain R6 [7] = test: Cell growth curves (OD 620 nm) of R6 cultures with or without test reagents; assay type: cell-based, Streptococcus pneumoniae; settings: for ability to inhibit R6 growth (FIG. 5): 100 μM peptide added to growing R6 at OD 620 nm of 0.1
Procedure: (§7) Cell growth curves were performed in the presence or absence of the test reagents as specified. In short, samples were prepared as follows: 1 ml of a pneumococcus culture was placed into 10 ml of prewarmed Semisynthetic (C+Y) medium. The optical density (OD) of the bacteria was monitored at 620 nm until an OD of approximately 0.1 was reached. At this point the test reagents were administered to the samples. The cells were cultured for up to 11 hours at 37° Celsius, and the OD at 620 nm was monitored every hour. A decrease in OD 620 is indicative of cell lysis, an increase is indicative of bacterial growth. No change in optical density indicates growth inhibition.
(§8) The peptide having amino acid sequence SEQ ID NO:2 was chemically synthesized and tested for growth inhibiting, killing and lytic activity in Streptococcus pneumoniae cultures. To characterize the antibacterial activity of the peptide, pneumococcal strain R6 which is sensitive to penicillin was exposed to 0.1 mM of the peptide having the amino acid sequence of SEQ ID NO:2 at an optical density of 0.01 (bacterial density of 3×10^6 cfu/ml). Bacterial growth as measured by optical density was followed for 11 hours and viability was assessed by plating on blood agar. […] Four hours after the start of the experiment, the control strain grew from 3×10^6 to 1.2×10^7 cfu/ml. In contrast, four hours after addition of the peptide, the viable bacterial number decreased from 3×10^6 to 3×10^4 CFU/ml (10^3-fold lower than the control).
The fact that the peptide is active in the range below 1 μg/ml places the potency of its antibacterial effect in the same range as conventional antibiotics.
R6 with no peptide was the control and underwent exponential growth.

pneumococcal strain R6 [8] = test: Cell viability (CFU/ml) of R6, plating on blood agar; assay type: cell-based, Streptococcus pneumoniae; settings: 0.1 mM peptide
Procedure: as §8, §4

[9] = tested on: Lyt-4-4 strain of Streptococcus pneumoniae (loss of LytA activity); test: Growth curve (OD 620 nm) of autolysin deficient strain Lyt 4-4; assay type: cell-based; settings: 0.1 mM peptide; absence of autolytic activity
Procedure: The addition of the additives were made at time “0” hours. The strain of bacteria cultured was the Lyt-4-4 strain of Streptococcus pneumoniae which harbors a mutation leading to the loss of LytA activity. The peptide having the amino acid sequence of SEQ ID NO:2 was added as indicated at a concentration of 0.1 mM. Lyt-4-4 lacks active autolysin LytA and is therefore tolerant to penicillin treatment.
as §7
This antibacterial effect was also demonstrable in bacteria mutated so as to prevent autolysis by point mutation in the autolysin, as in the autolysin deficient strain Lyt 4-4.

Lyt 4-4 = test: Chain morphology of Lyt 4-4; assay type: cell-based, Streptococcus pneumoniae; settings: 0.5 mM peptide in the medium
Description: Loss of chain formation is a measure of antibacterial activity independent of autolysin.
Strains of pneumococcus that are tolerant to penicillin, such as Lyt 4-4, grow in long chains as compared to the diplococcal morphology of wild type pneumococci. FIG. 6A illustrates these chains, which extend to 30-50 bacteria in length.

mutant in ORF WI = test: Antibacterial activity of the peptide in mutants: growth inhibition, ORF W1 mutant; assay type: cell-based, S. pneumoniae; settings: peptide added from the outside
Description: (§9) To test this hypothesis the ability of the peptide having the amino acid sequence of SEQ ID NO:2 to maintain antibacterial activity in the mutants was examined. […] Furthermore, bacteria which are tolerant by virtue of phenotypic tolerance due to slow growth rate or mutations in genes other than the RR/HK will be susceptible to the antibacterial effect of the peptide.

RR/HK mutants = test: Antibacterial activity of the peptide in mutants: growth inhibition, RR/HK mutants; assay type: cell-based, S. pneumoniae; settings: peptide added exogenously
Description: as §9

clinical isolate A144 [10] = test: Growth of clinical isolate A144; assay type: cell-based, pneumococcus; settings: 0.1 mM peptide added early in the growth cycle; for 4 hours
Description: as §4

[11] = tested on: pneumococcus R6, non-growing; test: Lysis of R6 cells under starvation conditions (medium lacking lysine); assay type: cell-based; settings: 10×MIC penicillin and/or 0.5 mM peptide
Description: When bacteria grow slowly or stop growing due to nutrient deprivation, they become tolerant to antibiotics of all classes. […] This prolongs the course of antibiotics needed to treat these infections. For instance, many weeks of therapy are required to treat endocarditis and osteomyelitis secondary to slowly growing bacteria. An in vitro example of phenotypic tolerance is shown in FIG. 10 where pneumococcus R6 has been transferred at time 0 to a medium lacking the essential amino acid lysine. Penicillin was added 5 min after the transfer. […] This same response is seen with the peptide.

HK mutant strain Van S = test: Lysis of HK mutant VanS cells; assay type: cell-based, pneumococcus; settings: 10×MIC penicillin and/or 0.5 mM peptide
Procedure: as §5, §6

## CN[C@H](CC(C)C)C(=O)N[C@H]1C(=O)N[C@@H](CC(N)=O)C(=O)N[C@H]2C(=O)N[C@H]3C(=O)N[C@H](C(=O)N[C@H](C(=O)O)c4cc(O)cc(O)c4-c4cc3ccc4O)[C@H](O)c3ccc(c(Cl)c3)Oc3cc2cc(c3O[C@@H]2O[C@H](CO)[C@@H](O)[C@H](O)[C@H]2O[C@H]2C[C@](C)(N)[C@H](O)[C@H](C)O2)Oc2ccc(cc2Cl)[C@H]1O [Vancomycin, vancomycin]
[1]
  Lysis by: tolerant
[2]
  Lysis by: sensitive
[3]
  Lysis by: tolerant
[4]
  lysis and death / tolerance of the mutants: exhibited tolerance
Clinical isolate A144 [5]
  loss of viability of A144 within one hour: 0.5 logs
[6]
  lysis / tolerance of F79: tolerant

## LADKRPARDYN (listed as Streptococcus pneumoniae) [Peptide 5]
Pneumococcal strain R6 [7]
  ability to inhibit R6 growth (FIG. 5): Exponential growth equal to untreated bacteria

## MEFMRKEFHNVLSSGQLLADKRPARDYN (listed as Streptococcus pneumoniae) [SEQ ID NO:12]
Pneumococcal strain R6 [7]
  antibacterial activity against R6: no antibacterial activity

## MRKEFHNVLSAGQLLADKRPARDYN [Peptide 3]
Pneumococcal strain R6 [7]
  ability to inhibit R6 growth (FIG. 5): greatly enhanced antibacterial effect

## MRKEFHNVLSSGQL (listed as Streptococcus pneumoniae) [Peptide 4]
Pneumococcal strain R6 [7]
  ability to inhibit R6 growth (FIG. 5): Exponential growth equal to untreated bacteria

## MRKEFHNVLSSGQLLADKRPARDAN [Peptide 2]
Pneumococcal strain R6 [7]
  ability to inhibit R6 growth (FIG. 5): greatly decreased anti-bacterial activity

## MRKEFHNVLSSGQLLADKRPARDYN (listed as Streptococcus pneumoniae) [Peptide 1]
Pneumococcal strain R6 [7]
  ability to inhibit R6 growth (FIG. 5): significant delay in the onset of bacterial growth
Pneumococcal strain R6 [7]; 0.1 mM peptide, R6, followed for 11 hours
  lysis: No lysis was detected
Pneumococcal strain R6 [7]; 0.1 mM peptide, R6 at optical density 0.01 (3×10^6 cfu/ml), followed for 11 hours
  growth of the bacteria (optical density): completely inhibited growth
Pneumococcal strain R6 [7]; R6, converted with molecular weight 2940
  minimum effective concentration (MEC): 0.15 to 0.3 µg/mL
Pneumococcal strain R6 [7]; R6, optical density of the culture over 4 hours
  minimum effective concentration (MEC): 50 to 100 nM
Pneumococcal strain R6 [7]; R6, various amounts of peptide, 4 hours
  dose response of antibacterial activity: dose dependent antibacterial activity
Pneumococcal strain R6 [8]; four hours
  viable bacterial number lower than the control: 10^3 fold
Pneumococcal strain R6 [8]; listed as SEQ ID NO:2
  killing of R6 (FIG. 2B): kills the bacteria without substantial cell lysis occurring; also recorded: rapidly killed
Pneumococcal strain R6 [8]; start 3×10^6, control grew to 1.2×10^7 cfu/ml
  viable bacterial number four hours after addition of the peptide: 3×10^4 CFU/ml
[9]
  bactericidal activity in strain Lyt 4-4: demonstrable
Lyt 4-4; listed as SEQ ID NO.2
  chain morphology of Lyt 4-4: dissolution of the chains
Lyt 4-4; listed as the peptide
  chain morphology of Lyt 4-4: reversion of the chains to diplococci
Mutant in ORF WI
  growth inhibition of the mutant in ORF W1: not able to inhibit growth
RR/HK mutants
  growth inhibition of the RR/HK mutants: did not function to inhibit the growth
Clinical isolate A144 [5]
  loss of viability of A144 within one hour: 0.5 logs
Clinical isolate A144 [10]
  growth of strain A144: significantly inhibits the growth
[11]
  lysis response of non-growing R6: same response
HK mutant strain Van S
  lysis / tolerance of strain Van S: not responsive

## MRKEFHNVLSSGQLLADKRPARDYNRK (listed as Streptococcus pneumoniae) [Peptide 6]
Pneumococcal strain R6 [7]
  ability to inhibit R6 growth (FIG. 5): the same effect

## deoxycholate [DOC]
[1]
  Lysis by: no
[2]
  Lysis by: yes
[3]
  Lysis by: yes

## penicillin
Pneumococcal strain R6 [7]; 10×MIC, normal growth
  lysis of growing R6: lyses R6 within one hour
[1]
  Lysis by: tolerant
[2]
  Lysis by: sensitive
[3]
  Lysis by: tolerant
[4]
  lysis and death / tolerance of the mutants: failed to lyse and die
Clinical isolate A144 [5]
  loss of viability of A144 within one hour: 0.5 logs
[11]
  lysis response of non-growing R6: only a minimal response
  viability of non-growing R6: unaffected
[6]
  lysis / tolerance of F79: tolerant
HK mutant strain Van S
  lysis / tolerance of strain Van S: tolerance
